Test results reported in publication PMC8550792, “Evolution of kinase polypharmacology across HSP90 drug discovery” (Cell Chemical Biology, 2021).

How the values were obtained:
Assay in all cases: biochemical
Format in all cases: biochemical
382 unique human kinases [1] = molecular target: T1, 382 unique human kinases (Homo sapiens, UniProt P32298); settings: kinase GRK4, compound 10 uM; for remaining activity at 10 µM: read-out: % Enzyme Activity (relative to DMSO controls)
T1 construct: purchased Reaction Biology (HotSpot contract assay)

382 unique human kinases [2] = molecular target: T2, 382 unique human kinases (Homo sapiens, UniProt P53355); settings: kinase DAPK1, compound 10 uM; for remaining activity at 10 µM: read-out: % Enzyme Activity (relative to DMSO controls)
T2 construct: purchased Reaction Biology (HotSpot contract assay)

382 unique human kinases [3] = molecular target: T3, 382 unique human kinases (Homo sapiens, UniProt Q16539); settings: kinase P38a/MAPK14, compound 10 uM; for remaining activity at 10 µM: read-out: % Enzyme Activity (relative to DMSO controls)
T3 construct: purchased Reaction Biology (HotSpot contract assay)

382 unique human kinases [4] = molecular target: T4, 382 unique human kinases (Homo sapiens, UniProt Q16816); settings: kinase PHKg1, compound 10 uM; for remaining activity at 10 µM: read-out: % Enzyme Activity (relative to DMSO controls)
T4 construct: purchased Reaction Biology (HotSpot contract assay)

382 unique human kinases [5] = molecular target: T5, 382 unique human kinases (Homo sapiens, UniProt Q9H4A3); settings: WNK1, 10 uM; for remaining activity at 10 µM: read-out: % Enzyme Activity (relative to DMSO controls)
T5 construct: purchased Reaction Biology (HotSpot contract assay)

382 unique human kinases [6] = molecular target: T6, 382 unique human kinases (Homo sapiens, UniProt Q9UF33); settings: kinase EPHA6, compound 10 uM; for remaining activity at 10 µM: read-out: % Enzyme Activity (relative to DMSO controls)
T6 construct: purchased Reaction Biology (HotSpot contract assay)
T6 sequence (Q9UF33 23-1036): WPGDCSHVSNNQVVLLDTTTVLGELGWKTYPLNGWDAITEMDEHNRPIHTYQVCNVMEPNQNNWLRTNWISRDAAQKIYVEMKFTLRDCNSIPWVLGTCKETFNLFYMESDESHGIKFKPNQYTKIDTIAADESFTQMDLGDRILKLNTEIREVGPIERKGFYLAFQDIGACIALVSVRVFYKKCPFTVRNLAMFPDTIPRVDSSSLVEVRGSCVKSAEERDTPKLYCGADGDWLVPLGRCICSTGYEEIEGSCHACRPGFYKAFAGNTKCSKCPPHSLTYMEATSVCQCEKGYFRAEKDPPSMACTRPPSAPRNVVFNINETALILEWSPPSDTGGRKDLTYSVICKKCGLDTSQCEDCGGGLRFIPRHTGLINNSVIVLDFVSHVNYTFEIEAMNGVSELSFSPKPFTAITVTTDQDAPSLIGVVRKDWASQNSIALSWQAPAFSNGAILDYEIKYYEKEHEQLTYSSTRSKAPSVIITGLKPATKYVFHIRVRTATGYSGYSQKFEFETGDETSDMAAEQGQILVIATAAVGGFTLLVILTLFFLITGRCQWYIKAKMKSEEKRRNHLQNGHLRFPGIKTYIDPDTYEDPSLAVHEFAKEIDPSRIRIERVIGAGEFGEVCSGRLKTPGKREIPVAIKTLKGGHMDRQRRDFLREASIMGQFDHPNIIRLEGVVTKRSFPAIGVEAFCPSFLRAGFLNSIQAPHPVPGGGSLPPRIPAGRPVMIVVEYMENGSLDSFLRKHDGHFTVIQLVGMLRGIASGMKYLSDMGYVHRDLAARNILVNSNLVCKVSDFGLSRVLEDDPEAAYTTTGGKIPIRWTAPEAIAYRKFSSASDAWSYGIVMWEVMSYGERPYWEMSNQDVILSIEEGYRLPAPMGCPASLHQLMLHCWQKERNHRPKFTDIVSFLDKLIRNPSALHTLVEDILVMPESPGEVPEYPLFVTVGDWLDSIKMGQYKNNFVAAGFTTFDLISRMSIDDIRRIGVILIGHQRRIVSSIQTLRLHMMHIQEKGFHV

382 unique human kinases [7] = molecular target: T7, 382 unique human kinases (Homo sapiens, UniProt P10721, V559D); settings: c-Kit (V559D), [ATP] 20 µM, compound 10 uM; for remaining activity at 10 µM: read-out: % Enzyme Activity (relative to DMSO controls)
T7 construct: purchased Reaction Biology (HotSpot contract assay)

382 unique human kinases [8] = molecular target: T8, 382 unique human kinases (Homo sapiens, UniProt P78527); settings: DNA-PK, 10 uM; for remaining activity at 10 µM: read-out: % Enzyme Activity (relative to DMSO controls)
T8 construct: purchased Reaction Biology (HotSpot contract assay)

382 unique human kinases [9] = molecular target: T9, 382 unique human kinases (Homo sapiens, UniProt Q86YV6); settings: MYLK4, [ATP] 50 µM, compound 10 uM; for remaining activity at 10 µM: read-out: % Enzyme Activity (relative to DMSO controls)
T9 construct: purchased Reaction Biology (HotSpot contract assay)
T9 sequence (Q86YV6 1-388): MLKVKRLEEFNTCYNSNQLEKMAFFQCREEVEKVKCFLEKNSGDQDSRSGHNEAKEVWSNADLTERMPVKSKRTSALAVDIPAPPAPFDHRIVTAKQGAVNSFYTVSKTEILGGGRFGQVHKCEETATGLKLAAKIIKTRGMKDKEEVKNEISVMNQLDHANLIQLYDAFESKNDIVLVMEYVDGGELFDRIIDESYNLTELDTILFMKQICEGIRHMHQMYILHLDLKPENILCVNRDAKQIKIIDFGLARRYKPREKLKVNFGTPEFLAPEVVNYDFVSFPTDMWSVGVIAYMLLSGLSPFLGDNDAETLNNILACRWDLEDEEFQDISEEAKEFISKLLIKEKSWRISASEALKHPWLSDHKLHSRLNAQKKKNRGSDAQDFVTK

382 unique human kinases [10] = molecular target: T10, 382 unique human kinases (Homo sapiens, UniProt Q9H2K8); settings: TAOK3/JIK, 10 uM; for remaining activity at 10 µM: read-out: % Enzyme Activity (relative to DMSO controls)
T10 construct: purchased Reaction Biology (HotSpot contract assay)
T10 sequence (Q9H2K8 1-898): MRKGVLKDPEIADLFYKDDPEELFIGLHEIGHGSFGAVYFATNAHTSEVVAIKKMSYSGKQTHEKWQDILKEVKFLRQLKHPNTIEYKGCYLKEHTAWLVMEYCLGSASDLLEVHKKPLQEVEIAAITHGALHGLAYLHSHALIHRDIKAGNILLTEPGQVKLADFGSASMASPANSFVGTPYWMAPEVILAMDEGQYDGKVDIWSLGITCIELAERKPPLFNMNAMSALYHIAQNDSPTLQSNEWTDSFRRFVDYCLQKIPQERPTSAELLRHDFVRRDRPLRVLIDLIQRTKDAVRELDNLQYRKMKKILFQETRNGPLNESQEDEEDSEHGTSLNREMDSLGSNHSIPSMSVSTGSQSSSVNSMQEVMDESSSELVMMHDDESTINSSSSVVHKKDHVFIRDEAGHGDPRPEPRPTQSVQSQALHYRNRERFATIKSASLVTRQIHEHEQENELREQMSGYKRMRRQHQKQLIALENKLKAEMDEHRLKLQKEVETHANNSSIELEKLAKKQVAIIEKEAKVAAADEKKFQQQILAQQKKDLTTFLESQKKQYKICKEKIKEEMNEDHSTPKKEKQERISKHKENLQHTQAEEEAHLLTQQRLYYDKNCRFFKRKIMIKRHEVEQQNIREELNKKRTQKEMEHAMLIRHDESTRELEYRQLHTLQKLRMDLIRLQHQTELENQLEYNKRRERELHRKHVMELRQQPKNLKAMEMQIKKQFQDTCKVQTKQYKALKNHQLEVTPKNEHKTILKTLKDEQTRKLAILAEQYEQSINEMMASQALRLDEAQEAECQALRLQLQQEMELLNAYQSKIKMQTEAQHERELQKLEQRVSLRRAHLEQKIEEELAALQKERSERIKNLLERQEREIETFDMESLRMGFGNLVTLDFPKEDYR

T3 sequence (Q16539 whole entry): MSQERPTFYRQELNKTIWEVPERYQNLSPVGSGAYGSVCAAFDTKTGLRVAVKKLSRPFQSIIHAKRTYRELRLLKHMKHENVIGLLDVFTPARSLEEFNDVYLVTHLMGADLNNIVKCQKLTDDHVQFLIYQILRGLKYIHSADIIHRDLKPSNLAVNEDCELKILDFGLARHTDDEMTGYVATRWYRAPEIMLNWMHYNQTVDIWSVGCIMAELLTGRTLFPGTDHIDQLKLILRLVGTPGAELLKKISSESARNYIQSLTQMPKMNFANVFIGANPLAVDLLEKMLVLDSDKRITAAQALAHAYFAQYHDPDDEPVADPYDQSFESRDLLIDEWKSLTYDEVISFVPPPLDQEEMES
T2 sequence (P53355 whole entry): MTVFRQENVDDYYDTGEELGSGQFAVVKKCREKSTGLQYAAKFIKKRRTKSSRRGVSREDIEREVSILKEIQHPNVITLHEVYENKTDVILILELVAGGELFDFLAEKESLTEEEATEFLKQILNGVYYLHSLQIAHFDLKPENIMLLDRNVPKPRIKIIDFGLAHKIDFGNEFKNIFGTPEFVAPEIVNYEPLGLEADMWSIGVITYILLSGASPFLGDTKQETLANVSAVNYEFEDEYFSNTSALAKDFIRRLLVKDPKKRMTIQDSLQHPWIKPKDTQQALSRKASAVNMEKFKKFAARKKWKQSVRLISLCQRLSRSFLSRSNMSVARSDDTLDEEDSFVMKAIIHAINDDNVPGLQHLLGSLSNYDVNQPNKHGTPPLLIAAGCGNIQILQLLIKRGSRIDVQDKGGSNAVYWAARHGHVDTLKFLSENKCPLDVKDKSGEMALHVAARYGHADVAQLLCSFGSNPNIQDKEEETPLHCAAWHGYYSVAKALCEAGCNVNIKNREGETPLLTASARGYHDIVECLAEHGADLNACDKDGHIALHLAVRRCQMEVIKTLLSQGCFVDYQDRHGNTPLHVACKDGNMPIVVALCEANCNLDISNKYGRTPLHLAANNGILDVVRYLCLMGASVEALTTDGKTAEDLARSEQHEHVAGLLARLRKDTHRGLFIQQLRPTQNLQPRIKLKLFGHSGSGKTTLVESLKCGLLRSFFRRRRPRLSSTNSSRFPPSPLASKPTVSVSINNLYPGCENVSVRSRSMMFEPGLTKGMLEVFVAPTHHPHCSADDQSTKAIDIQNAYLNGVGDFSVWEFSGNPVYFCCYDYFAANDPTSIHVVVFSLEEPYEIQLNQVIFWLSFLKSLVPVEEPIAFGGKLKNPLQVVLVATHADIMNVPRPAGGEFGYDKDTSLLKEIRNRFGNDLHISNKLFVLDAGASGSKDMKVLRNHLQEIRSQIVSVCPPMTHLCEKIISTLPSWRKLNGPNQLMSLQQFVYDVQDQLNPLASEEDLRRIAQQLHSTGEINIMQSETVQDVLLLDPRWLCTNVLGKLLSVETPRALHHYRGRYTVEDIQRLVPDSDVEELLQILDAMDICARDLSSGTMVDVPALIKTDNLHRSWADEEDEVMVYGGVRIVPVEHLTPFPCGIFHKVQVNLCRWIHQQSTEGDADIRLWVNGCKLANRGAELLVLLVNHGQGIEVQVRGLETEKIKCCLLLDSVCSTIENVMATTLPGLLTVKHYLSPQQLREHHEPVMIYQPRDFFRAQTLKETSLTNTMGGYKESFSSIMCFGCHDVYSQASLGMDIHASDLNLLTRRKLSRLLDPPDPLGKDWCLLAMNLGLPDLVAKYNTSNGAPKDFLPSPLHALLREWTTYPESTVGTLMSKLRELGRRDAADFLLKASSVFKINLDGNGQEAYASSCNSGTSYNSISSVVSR
T5 sequence (Q9H4A3 whole entry): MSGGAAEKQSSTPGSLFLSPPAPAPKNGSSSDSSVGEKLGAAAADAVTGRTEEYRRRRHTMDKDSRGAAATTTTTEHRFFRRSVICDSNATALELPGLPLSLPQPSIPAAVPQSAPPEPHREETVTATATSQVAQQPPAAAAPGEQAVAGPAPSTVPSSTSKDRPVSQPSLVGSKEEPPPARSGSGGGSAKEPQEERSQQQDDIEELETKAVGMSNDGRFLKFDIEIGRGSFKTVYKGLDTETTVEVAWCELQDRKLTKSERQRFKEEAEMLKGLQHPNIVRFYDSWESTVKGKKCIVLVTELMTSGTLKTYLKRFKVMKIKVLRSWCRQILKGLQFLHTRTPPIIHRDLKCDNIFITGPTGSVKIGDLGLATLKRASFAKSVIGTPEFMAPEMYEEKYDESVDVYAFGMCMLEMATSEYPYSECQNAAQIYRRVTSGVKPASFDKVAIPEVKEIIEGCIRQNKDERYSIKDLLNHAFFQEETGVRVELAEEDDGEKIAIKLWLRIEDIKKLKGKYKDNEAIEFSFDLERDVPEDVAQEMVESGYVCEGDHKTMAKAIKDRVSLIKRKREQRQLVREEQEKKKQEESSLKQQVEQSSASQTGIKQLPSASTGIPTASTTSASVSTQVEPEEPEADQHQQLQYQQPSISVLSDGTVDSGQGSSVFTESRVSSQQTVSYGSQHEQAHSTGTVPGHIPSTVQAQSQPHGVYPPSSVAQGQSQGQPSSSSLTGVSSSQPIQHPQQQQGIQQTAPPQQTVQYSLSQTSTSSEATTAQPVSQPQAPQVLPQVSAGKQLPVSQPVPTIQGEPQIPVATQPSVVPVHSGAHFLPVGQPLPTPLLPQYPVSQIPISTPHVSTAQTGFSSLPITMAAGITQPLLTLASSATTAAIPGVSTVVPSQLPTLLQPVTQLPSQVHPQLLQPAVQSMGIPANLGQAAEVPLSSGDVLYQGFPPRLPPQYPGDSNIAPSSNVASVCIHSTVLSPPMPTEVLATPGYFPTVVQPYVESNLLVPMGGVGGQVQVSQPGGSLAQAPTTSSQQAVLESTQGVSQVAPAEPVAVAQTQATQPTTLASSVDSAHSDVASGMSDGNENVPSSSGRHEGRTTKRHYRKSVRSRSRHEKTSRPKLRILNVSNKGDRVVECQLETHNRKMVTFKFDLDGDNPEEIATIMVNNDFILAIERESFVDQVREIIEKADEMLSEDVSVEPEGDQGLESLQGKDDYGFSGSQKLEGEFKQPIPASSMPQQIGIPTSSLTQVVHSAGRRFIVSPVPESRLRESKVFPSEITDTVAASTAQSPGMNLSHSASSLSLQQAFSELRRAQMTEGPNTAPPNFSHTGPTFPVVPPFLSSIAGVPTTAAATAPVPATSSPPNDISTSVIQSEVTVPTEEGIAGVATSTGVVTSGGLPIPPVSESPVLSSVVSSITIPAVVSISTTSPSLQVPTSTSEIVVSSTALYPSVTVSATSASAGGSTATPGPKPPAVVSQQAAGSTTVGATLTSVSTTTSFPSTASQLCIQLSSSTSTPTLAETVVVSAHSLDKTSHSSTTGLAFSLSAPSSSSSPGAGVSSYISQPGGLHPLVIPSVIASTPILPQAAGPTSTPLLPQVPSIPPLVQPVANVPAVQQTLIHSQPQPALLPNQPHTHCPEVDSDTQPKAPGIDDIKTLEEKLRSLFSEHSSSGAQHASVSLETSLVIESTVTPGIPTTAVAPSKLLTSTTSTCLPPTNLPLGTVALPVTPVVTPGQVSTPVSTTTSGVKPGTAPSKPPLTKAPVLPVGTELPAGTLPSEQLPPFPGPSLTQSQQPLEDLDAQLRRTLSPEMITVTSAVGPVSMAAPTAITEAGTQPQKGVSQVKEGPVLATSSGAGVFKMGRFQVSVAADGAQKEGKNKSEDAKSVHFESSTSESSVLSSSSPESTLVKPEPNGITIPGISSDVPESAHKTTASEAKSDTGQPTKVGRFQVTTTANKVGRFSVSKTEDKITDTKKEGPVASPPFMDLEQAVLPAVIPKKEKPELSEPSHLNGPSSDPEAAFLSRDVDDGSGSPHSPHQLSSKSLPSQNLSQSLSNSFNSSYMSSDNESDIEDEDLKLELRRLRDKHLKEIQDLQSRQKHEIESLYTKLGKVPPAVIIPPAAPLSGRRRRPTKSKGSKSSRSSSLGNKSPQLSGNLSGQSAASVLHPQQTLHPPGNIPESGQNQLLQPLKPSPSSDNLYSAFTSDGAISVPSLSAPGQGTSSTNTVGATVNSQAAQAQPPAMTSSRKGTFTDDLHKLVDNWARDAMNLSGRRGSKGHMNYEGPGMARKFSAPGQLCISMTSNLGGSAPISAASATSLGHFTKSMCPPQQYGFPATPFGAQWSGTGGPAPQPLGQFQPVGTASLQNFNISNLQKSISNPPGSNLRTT
T4 sequence (Q16816 whole entry): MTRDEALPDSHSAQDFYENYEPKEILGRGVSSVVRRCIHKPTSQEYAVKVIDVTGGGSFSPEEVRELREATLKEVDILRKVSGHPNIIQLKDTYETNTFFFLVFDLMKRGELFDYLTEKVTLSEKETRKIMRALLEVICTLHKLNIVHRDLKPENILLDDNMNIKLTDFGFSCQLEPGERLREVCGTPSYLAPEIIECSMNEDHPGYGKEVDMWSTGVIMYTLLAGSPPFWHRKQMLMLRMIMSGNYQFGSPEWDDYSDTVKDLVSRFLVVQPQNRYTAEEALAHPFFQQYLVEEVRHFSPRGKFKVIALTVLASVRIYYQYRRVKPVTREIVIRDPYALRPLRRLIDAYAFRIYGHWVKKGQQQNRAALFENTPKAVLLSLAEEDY

Row | Compound | remaining activity at 10 µM (382 unique human kinases [1]) [%] | remaining activity at 10 µM (382 unique human kinases [2]) [%] | remaining activity at 10 µM (382 unique human kinases [3]) [%] | remaining activity at 10 µM (382 unique human kinases [4]) [%] | remaining activity at 10 µM (382 unique human kinases [5]) [%] | remaining activity at 10 µM (382 unique human kinases [6]) [%] | remaining activity at 10 µM (382 unique human kinases [7]) [%] | remaining activity at 10 µM (382 unique human kinases [8]) [%] | remaining activity at 10 µM (382 unique human kinases [9]) [%] | remaining activity at 10 µM (382 unique human kinases [10]) [%] | % Enzyme Activity (relative to DMSO controls) (382 unique human kinases [1]) [%] | % Enzyme Activity (relative to DMSO controls) (382 unique human kinases [2]) [%] | % Enzyme Activity (relative to DMSO controls) (382 unique human kinases [3]) [%] | % Enzyme Activity (relative to DMSO controls) (382 unique human kinases [4]) [%] | % Enzyme Activity (relative to DMSO controls) (382 unique human kinases [5]) [%] | % Enzyme Activity (relative to DMSO controls) (382 unique human kinases [6]) [%] | % Enzyme Activity (relative to DMSO controls) (382 unique human kinases [7]) [%] | % Enzyme Activity (relative to DMSO controls) (382 unique human kinases [8]) [%] | % Enzyme Activity (relative to DMSO controls) (382 unique human kinases [9]) [%] | % Enzyme Activity (relative to DMSO controls) (382 unique human kinases [10]) [%]
1 | CC(C)c1cc(-c2n[nH]c(=O)n2-c2ccc3c(ccn3C)c2)c(O)cc1O [Ganetespib (STA9090)] | 90 | 83.3 | 89.6 | 88.5 | 94.2 | 91 |  |  |  |  |  |  |  |  |  |  |  |  |  | 
2 | CC(C)c1cc(-c2n[nH]c(=O)n2-c2ccc3c(ccn3C)c2)c(O)cc1O [Ganetespib] |  |  |  |  |  |  | 40.7 | 97.8 | 60.1 | 126 |  |  |  |  |  |  |  |  |  | 
3 | CCNC(=O)c1noc(-c2cc(C(C)C)c(O)cc2O)c1-c1ccc(CN2CCOCC2)cc1 [Luminespib (AUY-922)] | 97.7 | 83.5 | 95.1 | 98.2 | 70.4 | 92 |  |  |  |  | 97.37 | 82.81 | 90.33 | 96.94 | 68.64 | 91.89 |  |  |  | 
4 | CCNC(=O)c1noc(-c2cc(C(C)C)c(O)cc2O)c1-c1ccc(CN2CCOCC2)cc1 [Luminespib] |  |  |  |  |  |  | 69.6 | 91.6 | 96.7 | 100 |  |  |  |  |  |  | 69.57 | 91.21 | 95.56 | 98.33
